Here are results for 18 compounds from patent US8389541B2, “Inhibitors of protein tyrosine kinase activity” (MethylGene Inc., priority 2007, dated 2013).

pIC50: −log10 of the molar value.

The subject of one test is A549 cells. Nature of the test: Wound healing assay in A549 cells (HGF-stimulated). In kind it is cell-based. The note with it: Homo sapiens, last dose that inhibited gap closing by more than 25%, 24 h, read-out: A549 WOUND_HEALING IC50. The procedure:
Wound healing assay in A549 cells. A549 cells (ATCC) are seeded in DMEM low glucose medium complemented with 10% FBS into 24-well plates at a density of 7.5×10^4 cells/well and grown to confluence (48 h). Inhibitors were added to the medium at a range of doses (0.00032-10 uM) for 3 h at which point a gap is introduced by scraping cells with a P1000 pipette tip. Cells are then stimulated to migrate by the addition of HGF (in the form of conditioned medium from 293T cells over-expressing the human HGF gene) and the culture is continued for 24 h. […] For the purpose of standardization, a control is carried on every assay plates.

The target of test [1] is recombinant human c-Met/HGF receptor (Homo sapiens, UniProt P08581). Nature of the test: In vitro receptor tyrosine kinase assay (DELFIA), c-Met/HGF receptor.
Chain of recombinant human c-Met/HGF receptor (P08581 1078-1337): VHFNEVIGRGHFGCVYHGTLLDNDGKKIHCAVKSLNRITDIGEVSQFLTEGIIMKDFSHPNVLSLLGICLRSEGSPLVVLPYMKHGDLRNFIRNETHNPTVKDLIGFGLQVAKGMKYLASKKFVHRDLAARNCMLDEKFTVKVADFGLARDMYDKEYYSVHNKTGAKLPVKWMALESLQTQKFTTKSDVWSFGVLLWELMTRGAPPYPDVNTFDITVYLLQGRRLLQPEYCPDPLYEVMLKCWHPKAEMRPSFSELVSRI
A further test has as its target T1, VEGF receptor KDR (Homo sapiens, UniProt P35968).
T1 construct: made in house; host or cells: Sf9 cells (Spodoptera frugiperda), baculovirus
The test can be described thus: In vitro receptor tyrosine kinase assay (DELFIA), VEGF receptor KDR. The note with it: GST-VEGFR2 806-1356, 0.6 uM ATP; read-out: VEGFR IC50. It is filed as biochemical. From the text: In the case of VEGF receptor KDR a 1.6-kb cDNA corresponding to the catalytic domain of VEGFR2 or KDR (Genbank accession number AF035121 amino acid 806 to 1356) is cloned into the Pst I site of the pDEST20 Gateway vector (Invitrogen) for the production of a GST-tagged version of that enzyme.
The GST-VEGFR2806-1356 protein is expressed in Sf9 cells (Spodoptera frugiperda) upon infection with recombinant baculovirus construct.
The supernatant is loaded onto a GST-agarose column (Sigma) equilibrated with PBS pH 7.3. Following a four column volume (CV) wash with PBS pH 7.3+1% Triton X-100 and 4 CV wash with buffer B (50 mM Tris pH 8.0, 20% glycerol and 100 mM NaCl), bound proteins are step eluted with 5 CV of buffer B supplemented with 5 mM DTT and 15 mM glutathion. […] Final GST-VEGFR2806-1356 protein preparations concentrations are about 0.7 mg/ml with purity approximating 70%.

The target in the next test is T2, c-Met (Homo sapiens, UniProt P08581).
T2 construct: endogenous in cells; host or cells: MKN45 gastric carcinoma cells
T2 sequence (P08581 25-1390): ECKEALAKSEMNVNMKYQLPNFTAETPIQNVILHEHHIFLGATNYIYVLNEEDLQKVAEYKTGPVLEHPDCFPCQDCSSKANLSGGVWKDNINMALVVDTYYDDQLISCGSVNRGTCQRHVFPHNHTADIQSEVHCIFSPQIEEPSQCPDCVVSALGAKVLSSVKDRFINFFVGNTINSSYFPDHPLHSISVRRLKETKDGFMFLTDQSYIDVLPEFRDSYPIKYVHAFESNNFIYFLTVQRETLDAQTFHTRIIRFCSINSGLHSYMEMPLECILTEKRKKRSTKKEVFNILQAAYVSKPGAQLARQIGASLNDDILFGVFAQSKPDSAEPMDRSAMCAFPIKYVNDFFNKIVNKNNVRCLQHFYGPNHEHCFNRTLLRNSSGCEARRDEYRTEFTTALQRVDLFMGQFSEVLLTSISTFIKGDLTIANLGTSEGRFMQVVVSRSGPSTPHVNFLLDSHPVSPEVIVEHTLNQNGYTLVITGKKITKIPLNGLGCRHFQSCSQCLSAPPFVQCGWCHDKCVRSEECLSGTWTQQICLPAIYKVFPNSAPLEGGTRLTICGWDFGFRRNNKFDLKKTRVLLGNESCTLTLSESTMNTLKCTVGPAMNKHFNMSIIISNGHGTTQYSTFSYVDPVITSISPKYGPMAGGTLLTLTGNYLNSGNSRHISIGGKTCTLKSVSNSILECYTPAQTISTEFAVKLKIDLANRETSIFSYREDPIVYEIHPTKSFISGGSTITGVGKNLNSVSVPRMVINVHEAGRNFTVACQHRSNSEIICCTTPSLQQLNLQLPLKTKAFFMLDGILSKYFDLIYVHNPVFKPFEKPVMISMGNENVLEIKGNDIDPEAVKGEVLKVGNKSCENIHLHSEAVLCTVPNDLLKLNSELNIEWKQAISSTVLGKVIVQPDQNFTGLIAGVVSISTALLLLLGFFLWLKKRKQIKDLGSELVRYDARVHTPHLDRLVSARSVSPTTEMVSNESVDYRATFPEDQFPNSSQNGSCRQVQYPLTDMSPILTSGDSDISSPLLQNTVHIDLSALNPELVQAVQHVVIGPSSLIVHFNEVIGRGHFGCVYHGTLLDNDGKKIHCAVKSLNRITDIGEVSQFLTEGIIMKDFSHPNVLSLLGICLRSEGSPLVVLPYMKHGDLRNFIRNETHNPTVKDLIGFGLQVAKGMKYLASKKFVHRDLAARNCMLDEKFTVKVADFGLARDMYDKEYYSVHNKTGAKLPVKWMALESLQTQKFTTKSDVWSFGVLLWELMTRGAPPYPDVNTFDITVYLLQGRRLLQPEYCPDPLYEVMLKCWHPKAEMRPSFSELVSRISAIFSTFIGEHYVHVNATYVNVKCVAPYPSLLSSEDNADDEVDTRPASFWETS
Nature of the test: Inhibition of c-Met phosphorylation in MKN45 cells (direct ELISA). It is filed as cell-based. The following applies: 3 h treatment, read-out: CMET ELISA IN MKN45 IC50. The text has this: The following assay is used to determine inhibition of c-Met phosphorylation.
The c-Met receptor is expressed in numerous cancer cell lines derived from tumors of epithelial origin. In MKN45 gastric carcinoma cells the c-Met gene is amplified, resulting in several-fold overexpression of the receptor and its constitutive activation. For this reason constitutively high levels of ERK1/2 are also detected in these cells, independently of HGF-added stimulation (Smolen G A, Sordella R, Muir B, Mohapatra G, Barmettler A, Archibald H, et al. Amplification of MET may identify a subset of cancers with extreme sensitivity to the selective tyrosine kinase inhibitor PHA-665752. Proc Natl Acad Sci USA 2006). We have developed a sensitive method to follow c-Met phosphorylation in these cells. In previous studies with earlier generation c-Met inhibitors, we established that the IC50s for the inhibition of c-Met phosphorylation were identical using this novel ELISA approach and standard western blot procedure, with antibodies directed against the activating autocatalysis tyrosine residues of c-MET (Tyr Y1230-34-35).
Cell treatments: MKN45 cells are seeded into wells of 96-well plates at a density of 3×10^4 cells/well in RPMI medium supplemented with 10% FBS. HA-TPR-RON expressing 293T (clone 18) cells are seeded into wells of 96-well plates at a density of 3×10^4 cells/well in DMEM medium supplemented with 10% FBS. Cells are grown for 48 h prior to treatments with compounds of interest. Inhibitors are added to the medium in triplicate wells at the indicated doses. After 3 h of treatment, media is aspirated and cells are lysed by one freeze-thaw cycle in 50 μL/well hypotonic lysis buffer (25 mM HEPES pH 7.5, 10 mM NaCl with 1 mM 4-(2-aminoethyl)benzenesulfonyl fluoride hydrochloride, 200 μM sodium orthovanadate, 1 mM sodium fluoride, 10 μg/mL of leupeptin, 10 μg/mL of aprotinin/mL, 1 μg/mL of pepstatin and 50 μg/mL Na-p-tosyl-L-lysine chloromethyl ketone hydrochloride.
Detection of phosphorylated c-Met by direct ELISA: Lysate samples (5 μL) from wells of treatment plates are transferred to 80 μL of binding buffer (25 mM HEPES pH 7.5, 200 mM NaCl) in wells of high binding white polysterene 96-well plates (Corning). After an overnight protein binding incubation at 4° C., lysates are aspirated and wells are blocked for 1 h at 37° C. in TBST supplemented with 5% BSA. Plates are incubated with the primary antibodies anti-phospho-Tyrosine (Millipore, 4G10) diluted 1/15000 in TBST supplemented with 5% BSA for 1 h at room temperature. Plates are washed 3 times on a plate washer (SkanWasher, Molecular Devises), and incubated with the reporter antibody […] (Sigma) diluted 1/15000 in TBST supplemented with 5% BSA, for 1 h at room temperature. Plates are washed 3 times with TBST using on a plate washer and subsequently incubated with chemiluminescent substrate solution (ECL, Roche). Luminescence signal is captured on a Polar Star Optima apparatus (BMG LabTech).
Average values of the triplicate samples are used to prepare IC50 curves using a 4-parameter fit model. These curves are calculated using, for example, GraFit 5.0 software. For assay standardization purpose, an internal control is included on each experimental test plate.

Another test relates to DU145 cells. Nature of the test: Scatter assay in DU145 cells (HGF-stimulated). It is filed as cell-based. The note with it: Homo sapiens, DU-145, last dose that created an inhibitory effect on scattering, 24 h, read-out: DU145 SCATT. INHIB IC50. How it is done:
Scatter assays in DU145. The scatter assay is performed as described previously (Miura H, Nishimura K, Tsujimura A, Matsumiya K, Matsumoto K, Nakamura T, et al. Effects of hepatocyte growth factor on E-cadherin-mediated cell-cell adhesion in DU145 prostate cancer cells. Urology 2001; 58(6):1064-9) for DU145 prostate carcinoma cells with the indicated modifications. In brief, DU145 cells (ATCC) are seeded in 24-well plates at a density of 7×10^3 cells/well in MEM medium complemented with 10% FBS and cultured for 48 h, to allow the formation of small compact colonies of cells. Inhibitors are subsequently added at a range of doses (0.00032-10 uM) for 3 h. Cells are then stimulated to migrate by the addition of HGF (in the form of conditioned medium from 293T cells over-expressing the human HGF gene) and the culture is continued for another 24 h. The IC50 values is defined as the last dose that created an inhibitory effect on scattering. For the purpose of standardization a control is carried on every test plates for the DU145 scattering assays.

T1 sequence (P35968 806-1356): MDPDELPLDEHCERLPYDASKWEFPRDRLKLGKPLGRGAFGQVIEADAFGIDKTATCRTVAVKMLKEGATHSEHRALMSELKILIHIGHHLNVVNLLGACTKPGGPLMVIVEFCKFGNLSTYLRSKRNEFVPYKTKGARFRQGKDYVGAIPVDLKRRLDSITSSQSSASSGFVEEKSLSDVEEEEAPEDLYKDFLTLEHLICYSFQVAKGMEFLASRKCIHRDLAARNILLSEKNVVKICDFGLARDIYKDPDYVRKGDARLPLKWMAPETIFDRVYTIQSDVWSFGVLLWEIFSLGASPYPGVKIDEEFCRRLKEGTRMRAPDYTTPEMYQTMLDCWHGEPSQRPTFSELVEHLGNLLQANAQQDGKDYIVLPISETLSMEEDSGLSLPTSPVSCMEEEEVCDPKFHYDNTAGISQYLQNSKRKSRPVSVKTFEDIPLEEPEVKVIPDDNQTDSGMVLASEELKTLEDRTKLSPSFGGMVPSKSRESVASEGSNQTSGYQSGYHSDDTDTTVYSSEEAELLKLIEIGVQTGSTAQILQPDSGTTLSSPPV

For `COCCNCc1cccc(-c2cc3nccc(Oc4ccc(NC(=O)C5(C(=O)Nc6ccccc6)CC5)cc4F)c3s2)c1`, the pIC50 (in the test with A549 cells; in test [1]; at VEGF receptor KDR; on c-Met; with DU145 cells) was more than 6.60 in each case.

`COCCNCc1cccc(-c2cc3nccc(Oc4ccc(NC(=O)CC(=O)Nc5ccccc5)cc4F)c3s2)c1`: the pIC50 in the test on A549 cells was 6.30 to 6.60; in test [1], more than 6.60; on VEGF receptor KDR, more than 6.60; at c-Met it was 6.30 to 6.60; with DU145 cells, 6.30 to 6.60.

`COCCNCCn1cc(-c2cc3nccc(Oc4ccc(NC(=O)C5(C(=O)Nc6ccc(F)cc6)CC5)cc4F)c3s2)cn1`: the pIC50 (in the test with A549 cells; in test [1]; on VEGF receptor KDR; on c-Met; in the test with DU145 cells) was more than 6.60 each time.

With `COCCNCc1ccc(-c2cc3nccc(Oc4ccc(NC(=O)CC(=O)Nc5ccccc5)cc4F)c3s2)c(F)c1`, the pIC50 in the test on A549 cells was less than 6.00; in test [1] it was more than 6.60; on VEGF receptor KDR, more than 6.60; on c-Met, more than 6.60; with DU145 cells, 6.30 to 6.60.

Consider `O=C(Cc1ccc(F)cc1)NC(=S)Nc1ccc(Oc2ccnc3cc(-c4ccc(CNC5CC5)cc4)sc23)c(F)c1`, for which the pIC50 in the test on A549 cells is 6.30 to 6.60; in test [1], more than 6.60; at VEGF receptor KDR, more than 6.60; at c-Met, more than 6.60; with DU145 cells it was 6.30 to 6.60.

Turning to `O=C(Nc1ccccc1)C1(C(=O)Nc2ccc(Oc3ccnc4cc(-c5ccc(CNC6CC6)cc5)sc34)c(F)c2)CC1`, the pIC50 with A549 cells was 6.30 to 6.60; in test [1], more than 6.60; on VEGF receptor KDR, more than 6.60; on c-Met, more than 6.60; in the test on DU145 cells it was more than 6.60.

`COCCNCCn1cc(-c2cc3nccc(Oc4ccc(NC(=O)C5(C(=O)Nc6ccccc6)CC5)cc4F)c3s2)cn1`: the pIC50 (in the test on A549 cells; in test [1]; at VEGF receptor KDR; on c-Met; in the test on DU145 cells) was more than 6.60 throughout.

For `COCCNCCC(=O)N1CC=C(c2cc3nccc(Oc4ccc(NC(=O)CC(=O)N(C)c5ccccc5)cc4F)c3s2)CC1`, the pIC50 in the test on A549 cells was 6.30 to 6.60; in test [1], more than 6.60; on VEGF receptor KDR, more than 6.60; at c-Met, more than 6.60; in the test on DU145 cells it was more than 6.60.

For the compound `COCCNCc1cccc(-c2cc3nccc(Oc4ccc(NC(=S)NC(=O)Cc5ccc(F)cc5)cc4F)c3s2)c1` [drawing 296], the pIC50 in the test on A549 cells was 6.30 to 6.60; in test [1] it was more than 6.60; on VEGF receptor KDR, more than 6.60; at c-Met, more than 6.60; in the test on DU145 cells, 6.30 to 6.60.

Take `COC[C@H](C)NCc1cccc(-c2cc3nccc(Oc4ccc(NC(=S)NC(=O)Cc5ccc(F)cc5)cc4F)c3s2)c1` [drawing 297]: the negative logarithm of the IC50 (pIC50) is 6.30 to 6.60 with A549 cells; more than 6.60 in test [1]; more than 6.60 on VEGF receptor KDR; more than 6.60 at c-Met; more than 6.60 in the test with DU145 cells.

Consider `COCCNCc1ccc(-c2cc3nccc(Oc4ccc(NC(=S)NC(=O)Cc5ccccc5)cc4F)c3s2)cn1` [drawing 308], for which the pIC50 in the test on A549 cells was 6.30 to 6.60; in test [1] it was more than 6.60; at VEGF receptor KDR, 6.30 to 6.60; at c-Met, more than 6.60; with DU145 cells it was 6.30 to 6.60.

For `COCCNCc1ccc(-c2cc3nccc(Oc4ccc(NC(=S)NC(=O)Cc5ccc(F)cc5)cc4F)c3s2)cn1` [drawing 309], the pIC50 in the test on A549 cells is 6.30 to 6.60; in test [1], more than 6.60; on VEGF receptor KDR, more than 6.60; on c-Met it was more than 6.60; in the test on DU145 cells it was more than 6.60.

Consider `COCCNCc1ccc(-c2cc3nccc(Oc4ccc(NC(=O)C5(C(=O)Nc6ccccc6)CC5)cc4F)c3s2)cc1` [drawing 310], for which the pIC50 (in the test on A549 cells; in test [1]; at VEGF receptor KDR; on c-Met; in the test with DU145 cells) was more than 6.60 throughout.

Consider `COCCNCc1ccc(-c2cc3nccc(Oc4ccc(NC(=S)NC(=O)Cc5ccccc5OC)cc4F)c3s2)nc1` [drawing 311], for which the pIC50 is 6.30 to 6.60 with A549 cells; more than 6.60 in test [1]; more than 6.60 on VEGF receptor KDR; more than 6.60 at c-Met; 6.30 to 6.60 in the test with DU145 cells.

As for `COCCNCCn1cnc(-c2cc3nccc(Oc4ccc(NC(=S)NC(=O)Cc5ccc(F)cc5)cc4F)c3s2)c1` [drawing 318], the pIC50 in the test with A549 cells was 6.30 to 6.60; in test [1] it was more than 6.60; at VEGF receptor KDR, more than 6.60; at c-Met it was more than 6.60; in the test with DU145 cells, 6.30 to 6.60.

Consider `COCCNCCn1cc(-c2cc3nccc(Oc4ccc(NC(=S)NC(=O)Cc5ccccc5)cc4F)c3s2)cn1` [drawing 321], for which the pIC50 in the test with A549 cells is 6.30 to 6.60; in test [1], more than 6.60; at VEGF receptor KDR it was more than 6.60; at c-Met, more than 6.60; in the test on DU145 cells, 6.30 to 6.60.

Consider `COCCNCc1ccc(-c2cc3nccc(Oc4ccc(NC(=O)C5(C(=O)Nc6ccccc6)CC5)cc4F)c3s2)o1` [drawing 326], for which the pIC50 in the test on A549 cells is 6.30 to 6.60; in test [1], more than 6.60; at VEGF receptor KDR it was more than 6.60; at c-Met, more than 6.60; in the test with DU145 cells, 6.30 to 6.60.

As to `COCCNCCn1cc(-c2cc3nccc(Oc4ccc(NC(=O)CC(=O)N(C)c5ccccc5)cc4F)c3s2)cn1` [drawing 334], the pIC50 was more than 6.60 in the test on A549 cells; more than 6.60 in test [1]; more than 6.60 at VEGF receptor KDR; more than 6.60 at c-Met; 6.30 to 6.60 in the test on DU145 cells.
